From patent publication US11952382B1, “2-benzo-[3,4-b]quinolino-[b,g]indeno[1,2:3,4]fluoreno-[1,2-d]oxonine-24-flouro-5,11,16,21-tetraone as an antimicrobial compound” (KING FAISAL UNIVERSITY, priority 2023, dated 2024)

Experiments:
Type in all cases: cell-based
Conditions in all cases: after 10, 20, 40 and 60 minutes at all dilutions 1:100, 1:200, 1:400, 1:800
Candida albicans = assay: Antimicrobial (antifungal) screening by agar dilution, Candida albicans
Protocol: (§1) The antibacterial properties of the synthesized compound 2-benzo-[3,4-b]quinolino-[b,g]indeno[1′,2′:3,4]fluoreno-[1,2-d]oxonine-24-flouro-5,11,16,21-tetraone were studied by the method of agar dilution. Test solutions of each compound was prepared in concentration of 1% using dimethylformamide as a solvent then they are diluted in physiological solution to obtain the final experimental dilutions 1:100, 1:200, 1:400, 1:800. The effect of these substances are compared with furacillin in a controllable study. The testing microbes used were gram positive bacteria Staphylococcus aureus, gram negative bacteria Pseudomonas aeruginosa and Escherichia coli and Candida albicans fungus. The experiments used for this survey were meat-pentonlu agar (EPA) for cultivation of bacteria and Saburo environment for the fungus. Each experiment used 1 mL of test solution on each plate […]. Two drops of emulsified with microbes feel were added. All experimental samples were taken from the agar after 10, 20, 40, 60 minutes in the environment on the basis of Patrk planted. The bacteria were cultivated at a temperature of 37° C. for 1 day and the mushroom was kept in a thermostat for 2 hours at a temperature of 28° C. Then results were checked.

Pseudomonas aeruginosa = assay: Antimicrobial screening by agar dilution, Pseudomonas aeruginosa
Protocol: as §1

Escherichia coli = assay: Antimicrobial screening by agar dilution, Escherichia coli
Protocol: as §1

Staphylococcus aureus = assay: Antimicrobial screening by agar dilution, Staphylococcus aureus
Protocol: as §1

Measured: inhibition activity

O=C1Oc2nc3ccc(F)cc3cc2-c2c(c3c4ccccc4c(=O)c3c3c2c(=O)c2ccccc23)C(=O)c2ccccc21 [2-benzo-[3,4-b]quinolino-[b,g]indeno[1′,2′:3,4]fluoreno-[1,2-d]oxonine-24-flouro-5,11,16,21-tetraone]
highest inhibition activity: all assays above
